The test system of one data set is Cyperus iria; CYPIR. Put plainly: Postemergence herbicidal activity of mixtures in the greenhouse, sedge weed control. Format: in vivo. As to conditions: 21 days after application. The procedure:
Seeds of the desired test plant species were planted in 80% mineral soil/20% grit planting mixture, which typically has a pH of 7.2 and an organic matter content of approximately 3 percent, in plastic pots with a surface area of 128 square centimeters (cm^2). The growing medium was steam sterilized. The plants were grown for 7-19 days (d) in a greenhouse with an approximate 14-hour (h) photoperiod which was maintained at about 29° C. during the day and 26° C. during the night. Nutrients and water were added on a regular basis and supplemental lighting was provided with overhead metal halide 1000-Watt lamps as necessary. The plants were treated with postemergence foliar applications when they reached the second to fourth true leaf stage. All treatments were applied using a randomized complete block trial design, with 4 replications per treatment. Treatments consisted of the compounds as listed in Tables 1 and 3, each compound applied alone and in combination. Formulated amounts of penoxsulam and bentazon, were placed in 60 milliliter (mL) glass vials and dissolved in a volume of 60 mL of a water solution containing Agri-dex crop oil concentrate in a 1% v/v ratio. Compound requirements are based upon a 12 mL application volume at a rate of 187 liters per hectare (L/ha). Spray solutions of the mixtures were prepared by adding the stock solutions to the appropriate amount of dilution solution to form a 12 mL spray solution with active ingredients in single and two way combinations. Formulated compounds were applied to the plant material with an overhead Mandel track sprayer equipped with […] nozzles calibrated to deliver 187 L/ha at a spray height of 18 inches (43 centimeters (cm)) above average plant canopy. The treated plants and control plants were placed in a greenhouse as described above and watered by sub-irrigation to prevent wash-off of the test compounds. […] Visual weed control was scored on a scale of 0 to 100 percent where 0 corresponds to no injury and 100 corresponds to complete kill. […]

Data set [1] deals with Sagittaria trifolia (SAGTR). Description: Postemergence herbicidal activity of mixtures in the field, broadleaf weed control. Format: in vivo. Particulars: 6 to 45 days after application. On the procedure:
(§1) Field trials were conducted in rice using standard herbicide small plot research methodology. Plots varied from 3×3 meter (m) to 3×10 m (width×length) with 4 replicates per treatment. The rice crop was grown using normal cultural practices for fertilization, seeding, watering, flooding and maintenance to ensure good growth of the crop and the weeds. All treatments in the field trials were applied using a CO2 backpack sprayer calibrated to apply 187 L/ha spray volume. Commercially available products of penoxsulam and bentazon were mixed in water at appropriate formulated product rates to achieve the desired rates based on a unit area of application (hectare) to achieve the desired rates as shown. Treatments were rated at 6 to 45 d after application as compared to the untreated control plants. Visual weed control was scored on a scale of 0 to 100 percent where 0 corresponds to no injury and 100 corresponds to complete kill. Colby's equation was used to determine the herbicidal effects expected from the mixtures (Colby, S. R. Calculation of the synergistic and antagonistic response of herbicide combinations. Weeds 1967, 15, 20-22.). The following equation was used to calculate the expected activity of mixtures containing two active ingredients, A and B: Expected=A+B−(A×B/100) A=observed efficacy of active ingredient A at the same concentration as used in the mixture. B=observed efficacy of active ingredient B at the same concentration as used in the mixture.

For data set [2], the system named is Echinochloa crus-galli (ECHCG). Description: Postemergence herbicidal activity of mixtures in the field, grass weed control. Format: in vivo. Particulars: 6 to 45 days after application. On the procedure:
as §1, with “B=observed efficacy of active ingredient B at the same concentration as used in the mixture.” left out

A further data set has as its system Rice (ORYSA). Put plainly: Safening of injury in rice in the greenhouse. Format: in vivo, Orysa sativa. As to conditions: 21 days after application. The procedure: Seeds of the desired test plant species were planted in 80% mineral soil/20% grit planting mixture, which typically has a pH of 7.2 and an organic matter content of approximately 3 percent, in plastic pots with a surface area of 128 square centimeters (cm^2). The growing medium was steam sterilized. The plants were grown for 7-19 days (d) in a greenhouse with an approximate 14-hour (h) photoperiod which was maintained at about 29° C. during the day and 26° C. during the night. Nutrients and water were added on a regular basis and supplemental lighting was provided with overhead metal halide 1000-Watt lamps as necessary. The plants were treated with postemergence foliar applications when they reached the second to fourth true leaf stage. All treatments were applied using a randomized complete block trial design, with 4 replications per treatment. Treatments consisted of the compounds as listed in Tables 1 and 3, each compound applied alone and in combination. Formulated amounts of penoxsulam and bentazon, were placed in 60 milliliter (mL) glass vials and dissolved in a volume of 60 mL of a water solution containing Agri-dex crop oil concentrate in a 1% v/v ratio. […] Visual weed control was scored on a scale of 0 to 100 percent where 0 corresponds to no injury and 100 corresponds to complete kill. […]

The mark [3] stands for this setting: bentazon-sodium 1000 g/ha alone.

The structures appear in SMILES notation.

For the compound `CC(C)N1C(=O)c2ccccc2NS1(=O)=O` [Bentazon-Sodium, 3-(1-methylethyl)-1H-2,1,3-benzothiadiazin-4(3H)-one 2,2-dioxide], the “% Control CYPIR Ob” value in the data set with Cyperus iria; CYPIR (bentazon-sodium 500 g/ha alone) is 55%; in the data set on Cyperus iria; CYPIR (setting [3]), 72%. In data set [1] (bentazon-sodium 1100 g/ha alone), the “% Control SAGTR Ob” value stood at 78%. In addition, the “% Control ECHCG Ob” value in data set [2] (bentazon-sodium 2000 g/ha alone) amounted to 0%. In addition, the “% Control ORYSA Ob” value with Rice (ORYSA) (bentazon-sodium 500 g/ha alone) was 14%; in the data set on Rice (ORYSA) (setting [3]) it was 16%.
For the compound `COc1cnc(OC)n2nc(NS(=O)(=O)c3c(OCC(F)F)cccc3C(F)(F)F)nc12` [Penoxsulam, 2-(2,2-difluoroethoxy)-N-(5,8-dimethoxy-[1,2,4]triazolo[1,5-c]pyrimidin-2-yl)-6-(trifluoromethyl)benzenesulfonamide], the “% Control CYPIR Ob” value in the data set with Cyperus iria; CYPIR (penoxsulam 3 g/ha alone) is on record as 20%. In addition, the “% Control SAGTR Ob” value in data set [1] (penoxsulam 15 g/ha alone) worked out at 38%; in data set [1] (penoxsulam 23 g/ha alone), 45%. For the same compound, the “% Control ECHCG Ob” value in data set [2] (penoxsulam 38 g/ha alone) was found to be 30%.

Source of the values: US10085451B2, “Synergistic herbicidal composition containing penoxsulam and bentazon” (Dow AgroSciences LLC, priority 2010, dated 2018).
